The record followed here is patent US20180148429A1 (SELVITA S.A., priority 2015, published 2018).

SMILES strings stand for the structures.

The target in one assay is T1, Human recombinant His-tagged PFKFB3 (Homo sapiens, UniProt Q16875).
T1 construct: His; made in house
T1 sequence (Q16875 whole entry): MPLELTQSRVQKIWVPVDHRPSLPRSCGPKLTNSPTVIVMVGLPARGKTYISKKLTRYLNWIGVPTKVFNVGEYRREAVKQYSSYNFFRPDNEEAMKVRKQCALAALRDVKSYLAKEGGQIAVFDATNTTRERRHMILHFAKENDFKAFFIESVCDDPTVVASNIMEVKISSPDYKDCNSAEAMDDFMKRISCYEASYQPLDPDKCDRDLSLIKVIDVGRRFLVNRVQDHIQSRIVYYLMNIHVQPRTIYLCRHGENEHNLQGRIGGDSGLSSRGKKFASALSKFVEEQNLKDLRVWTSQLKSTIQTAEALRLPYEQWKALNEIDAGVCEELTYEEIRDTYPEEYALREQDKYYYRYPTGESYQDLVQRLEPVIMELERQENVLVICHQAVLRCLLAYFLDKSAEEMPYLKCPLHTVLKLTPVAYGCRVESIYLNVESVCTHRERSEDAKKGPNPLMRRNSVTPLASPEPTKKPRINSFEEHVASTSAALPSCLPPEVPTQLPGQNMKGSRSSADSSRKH
Briefly: PFKFB3 IC50 determination assay (in vitro kinase assay, modified ADP-Glo system). The assay is classed as biochemical.
Settings: not given
The protocol:
PFKFB3 IC50 Determination Assay
In vitro kinase assay used to determine IC50 values for tested inhibitors is based on a modified ADP-Glo™ system (Promega) and consists of two parts:
1. Kinase reaction—performed in optimized conditions. At this step PFKFB3 phosphorylates its substrate fructose-6-phosphate using ATP as a source of phosphate to produce fructose-2,6-bisphosphate and ADP. Reaction is performed at Km values for ATP and substrate using optimized buffer composition and time of the reaction. Human recombinant His-tagged PFKFB3 (PFKFB3 BATCH II SEC) with confirmed activity is produced and purified in-house.
2. Detection of ADP as a product of the reaction using ADP-Glo™ system. This part is conducted by using the commercially available kit ADP-Glo™ Kinase Assay (Promega, cat. No# V9103) according to manufacturer's instruction, modified by 5× dilutions of assay reagents (both ADP-Glo™ Reagent and Kinase Detection Solution).
Test compounds are dissolved in DMSO and then transferred to the V-bottom 96-well plate.
15 μL per well of Mix 1 is transferred to assay wells of 96-well white plate. […] Total reaction volume is 30 μL per well. Samples are tested in duplicates. Final concentration of DMSO in the reaction is 6.7%. Conditions needed for performing PFKFB3 (PFKFB3 BATCH II SEC) in vitro kinase assay are given below:
This protocol is based on Technical Bulletin, ADP-Glo™ Kinase Assay (Promega) and is adapted to 96-well plate containing 30 μL reaction mixture:
The plate is incubated for 90 minutes on a shaker at rt. […] Plate is incubated for 40 minutes on a shaker at rt, protected from light. Luminescence is measured in the plate reader Synergy 2 (BioTek).
Luminescent readouts for compounds tested in 10 concentrations (routinely from 100 μM to […], […] serial dilutions) in duplicates, as well as for positive control, are first normalized to no-substrate negative control by its subtraction. In the next step, % of normalized positive control is calculated for each data point and plotted against test compound concentration:
% of control—percent of positive control normalized to no-substrate negative control Lumcpd—luminescence of test compound Lumneg—luminescence of no-substrate negative control Lumpos—luminescence of positive control
IC50 parameter is determined by the GraphPad Prism 5.0 software
[log(inhibitor) vs. response−Variable slope (four parameters)].
Usually IC50 stands for the point on the concentration scale where inhibition reaches its midpoint. Take `COc1ccc([C@@H](Nc2cc(-c3ccc4ccn(C)c4c3)c3nccnc3c2)c2cnnn2C)cn1` [Example 325, N-[(R)-(6-methoxypyridin-3-yl)(1-methyl-1H-1,2,3-triazol-5-yl)methyl]-8-(1-methyl-1H-indol-6-yl)quinoxalin-6-amine]: the IC50 is 0.001 to 1 µM.
In the case of `COc1ccc([C@H](Nc2cc(-c3ccc4ccn(C)c4c3)c3nccnc3c2)c2cnnn2C)cn1` [Example 326, N-[(S)-(6-methoxypyridin-3-yl)(1-methyl-1H-1,2,3-triazol-5-yl)methyl]-8-(1-methyl-1H-indol-6-yl)quinoxalin-6-amine], the IC50 lay within 0.001 to 1 µM.

The assay is the same for the next values; noted with them: ADP-Glo; ATP 20 μM (Km), fructose-6-phosphate 2 μM (Km), 25 nM PFKFB3, 2 h, rt; read-out: PFKFB3 IC50.
As to `Cn1nccc1CNc1cc(-c2ccc3ccn(C)c3c2)c2nccnc2c1` [Example 301, 8-(1-methyl-1H-indol-6-yl)-N-[(1-methyl-1H-pyrazol-5-yl)methyl]quinoxalin-6-amine], the IC50 lay within 1 to 10 µM.
For the compound `COc1ccc(C(Nc2cc(-c3ccc4scc(C)c4c3)c3nccnc3c2)c2cnnn2C)cn1` (stereo not shown) [Example 302, N-[(6-methoxypyridin-3-yl)(1-methyl-1H-1,2,3-triazol-5-yl)methyl]-8-(3-methyl-1-benzothiophen-5-yl)quinoxalin-6-amine], the IC50 is 0.001 to 1 µM.
Same read-out and setting: as for `CN1C2CCC1CC(C(Nc1cc(-c3ccc4ccn(C)c4c3)c3nccnc3c1)c1cccnc1)C2` (stereo not shown) [Example 304, 8-(1-methyl-1H-indol-6-yl)-N-({8-methyl-8-azabicyclo[3.2.1]octan-3-yl}(pyridin-3-yl)methyl)quinoxalin-6-amine], the figure is 0.001 to 1 µM; as for `CNc1ccc(C(Nc2cc(-c3ccc4ccn(C)c4c3)c3nccnc3c2)c2cccnc2)cn1` (stereo not shown) [Example 305, 8-(1-methyl-1H-indol-6-yl)-N-{[6-(methylamino)pyridin-3-yl](pyridin-3-yl)methyl}quinoxalin-6-amine], 1 to 10 µM; as for `Cn1cc(CNc2cc(-c3ccc4ccn(C)c4c3)c3nccnc3c2)cn1` [Example 306, 8-(1-methyl-1H-indol-6-yl)-N-[(1-methyl-1H-pyrazol-4-yl)methyl]quinoxalin-6-amine], 1 to 10 µM.
Consider `CC(=O)Nc1ccc(C(Nc2cc(-c3ccc4ccn(C)c4c3)c3nccnc3c2)c2cccnc2)cn1` (stereo not shown) [Example 307, N-[5-({[8-(1-methyl-1H-indol-6-yl)quinoxalin-6-yl]amino}(pyridin-3-yl)methyl)pyridin-2-yl]acetamide], for which the IC50 lay in the range of 10 to 100 µM.
The same measure, in the same setting: in the case of `Cn1ccc2ccc(-c3cc(NC(c4cccnc4)C4CCC(N)CC4)cc4nccnc34)cc21` (stereo not shown) [Example 308, N-[(4-aminocyclohexyl)(pyridin-3-yl)methyl]-8-(1-methyl-1H-indol-6-yl)quinoxalin-6-amine] it was 0.001 to 1 µM.
For the compound `COc1ccc(C(Nc2cc(-c3ccc4ccn(C)c4c3)c3nccnc3c2)c2ccc(OC)nc2)cn1` [Example 309, N-[bis(6-methoxypyridin-3-yl)methyl]-8-(1-methyl-1H-indol-6-yl)quinoxalin-6-amine], the IC50 was in the range of 1 to 10 µM.
Same read-out and setting: in the case of `CC(=O)N1CCC([C@@H](Nc2cc(-c3ccc4scc(C)c4c3)c3nccnc3c2)c2cccnc2)CC1` [Example 310, 1-{4-[(R)-{[8-(3-methyl-1-benzothiophen-5-yl)quinoxalin-6-yl]amino}(pyridin-3-yl)methyl]piperidin-1-yl}ethan-1-one] it was 1 to 10 µM.
Same read-out and setting: in the case of `CC(=O)N1CCC([C@H](Nc2cc(-c3ccc4scc(C)c4c3)c3nccnc3c2)c2cccnc2)CC1` [Example 311, 1-{4-[(S)-{[8-(3-methyl-1-benzothiophen-5-yl)quinoxalin-6-yl]amino}(pyridin-3-yl)methyl]piperidin-1-yl}ethan-1-one] it was 0.001 to 1 µM; in that of `Cc1ncc(CNc2cc(-c3ccc4ccn(C)c4c3)c3nccnc3c2)o1` [Example 312, N-[(2-methyl-1,3-oxazol-5-yl)methyl]-8-(1-methyl-1H-indol-6-yl)quinoxalin-6-amine], 1 to 10 µM; in that of `Cc1csc2ccc(-c3cc(NC(c4cccnc4)c4cncn4C)cc4nccnc34)cc12` (stereo not shown) [Example 313, 8-(3-methyl-1-benzothiophen-5-yl)-N-[(1-methyl-1H-imidazol-5-yl)(pyridin-3-yl)methyl]quinoxalin-6-amine], 0.001 to 1 µM.
On the same count and under the same terms, in the case of `COc1ccc(C(Nc2cc(-c3ccc4ccn(C)c4c3)c3nccnc3c2)c2cncn2C)cn1` (stereo not shown) [Example 314, N-[(6-methoxypyridin-3-yl)(1-methyl-1H-imidazol-5-yl)methyl]-8-(1-methyl-1H-indol-6-yl)quinoxalin-6-amine] it was 0.001 to 1 µM; in that of `COc1ccc(C(Nc2cc(-c3ccc4scc(C)c4c3)c3nccnc3c2)c2cncn2C)cn1` (stereo not shown) [Example 315, N-[(6-methoxypyridin-3-yl)(1-methyl-1H-imidazol-5-yl)methyl]-8-(3-methyl-1-benzothiophen-5-yl)quinoxalin-6-amine], 0.001 to 1 µM; in that of `COc1ccc(C(Nc2cc(-c3ccc4occ(C)c4c3)c3nccnc3c2)c2cnnn2C)cn1` (stereo not shown) [Example 316, N-[(6-methoxypyridin-3-yl)(1-methyl-1H-1,2,3-triazol-5-yl)methyl]-8-(3-methyl-1-benzofuran-5-yl)quinoxalin-6-amine], 0.001 to 1 µM.
Turning to `COc1ccc(C(Nc2cc(-c3ccc4ccn(C)c4c3)c3nccnc3c2)c2ccnn2C)cn1` (stereo not shown) [Example 317, N-[(6-methoxypyridin-3-yl)(1-methyl-1H-pyrazol-5-yl)methyl]-8-(1-methyl-1H-indol-6-yl)quinoxalin-6-amine], the IC50 is 1 to 10 µM.
As to `Cn1ccc2ccc(-c3cc(NC(c4cccnc4)C4CCN(S(C)(=O)=O)CC4)cc4nccnc34)cc21` (stereo not shown) [Example 318, N-[(1-methanesulfonylpiperidin-4-yl)(pyridin-3-yl)methyl]-8-(1-methyl-1H-indol-6-yl)quinoxalin-6-amine], the IC50 was 0.001 to 1 µM.
The same measure, in the same setting: in the case of `COc1ccc(C(Nc2cc(-c3ccc4ccn(C)c4c3)c3nccnc3c2)c2ccns2)cn1` (stereo not shown) [Example 319, N-[(6-methoxypyridin-3-yl)(1,2-thiazol-5-yl)methyl]-8-(1-methyl-1H-indol-6-yl)quinoxalin-6-amine] it was 0.001 to 1 µM.
Regarding `Cn1ccc2ccc(-c3cc(NC(C)(c4cccnc4)c4cccnc4)cc4nccnc34)cc21` [Example 320, N-[1,1-bis(pyridin-3-yl)ethyl]-8-(1-methyl-1H-indol-6-yl)quinoxalin-6-amine], the IC50 is 0.001 to 1 µM.
The same measure, in the same setting: in the case of `COc1ccc(CNc2cc(-c3ccc4ccn(C)c4c3)c3nccnc3c2)cn1` [Example 321, N-[(6-methoxypyridin-3-yl)methyl]-8-(1-methyl-1H-indol-6-yl)quinoxalin-6-amine] it was 1 to 10 µM; in that of `Cn1ccc2ccc(-c3cc(NCc4ccnnc4)cc4nccnc34)cc21` [Example 322, 8-(1-methyl-1H-indol-6-yl)-N-(pyridazin-4-ylmethyl)quinoxalin-6-amine], 0.001 to 1 µM; in that of `COc1ccc([C@@H](Nc2cc(-c3ccc4scc(C)c4c3)c3nccnc3c2)c2cnnn2C)cn1` [Example 323, N-[(R)-(6-methoxypyridin-3-yl)(1-methyl-1H-1,2,3-triazol-5-yl)methyl]-8-(3-methyl-1-benzothiophen-5-yl)quinoxalin-6-amine], 0.001 to 1 µM.
Take `COc1ccc([C@H](Nc2cc(-c3ccc4scc(C)c4c3)c3nccnc3c2)c2cnnn2C)cn1` [Example 324, N-[(S)-(6-methoxypyridin-3-yl)(1-methyl-1H-1,2,3-triazol-5-yl)methyl]-8-(3-methyl-1-benzothiophen-5-yl)quinoxalin-6-amine]: the IC50 was in the range of 0.001 to 1 µM.
On the same count and under the same terms, in the case of `CC(=O)N[C@H]1CC[C@H]([C@@H](Nc2cc(-c3ccc4ccn(C)c4c3)c3nccnc3c2)c2cccnc2)CC1` [Example 327, N-[(1R,4r)-4-[(R)-{[8-(1-methyl-1H-indol-6-yl)quinoxalin-6-yl]amino}(pyridin-3-yl)methyl]cyclohexyl]acetamide] it was 1 to 10 µM.
Still for that read-out and setting: as for `CC(=O)N[C@H]1CC[C@H]([C@H](Nc2cc(-c3ccc4ccn(C)c4c3)c3nccnc3c2)c2cccnc2)CC1` [Example 328, N-[(1S,4r)-4-[(S)-{[8-(1-methyl-1H-indol-6-yl)quinoxalin-6-yl]amino}(pyridin-3-yl)methyl]cyclohexyl]acetamide], the figure is 0.001 to 1 µM; as for `Cn1ccc2ccc(-c3cc(N(Cc4cccnc4)c4cc(S(C)(=O)=O)ccn4)cc4nccnc34)cc21` [compound 219, N-(4-methanesulfonylpyridin-2-yl)-8-(1-methyl-1H-indol-6-yl)-N-[(pyridin-3-yl)methyl]quinoxalin-6-amine], 0.001 to 1 µM.
